Reference: US20220096431A1, “PHARMACEUTICAL COMPOSITION AND METHOD FOR PREVENTING, TREATING AND DIAGNOSING A NEURODEGENERATIVE DISEASE” (BUDDHIST TZU CHI MEDICAL FOUNDATION, priority 2020, published 2022)

Tests used:
Notch signaling = details: background; cited from earlier work
SH-SY5Y = assay: Aβ1-42 poisoning experiment in SH-SY5Y cells (MTT); format: cell-based, human; details: n-butylidenephthalide 100 μM, vitamin C 200 μM, alone or in combination, Aβ1-42 1 μM
Source text: Then, the cell viability is detected by a cell survival test using (3-(4,5-dimethylthiazol-2-yl)-2,5-diphenyltetrazolium bromide (MTT) assay.

3xTg AD mice = assay: Morris water maze test in AD-3xTg mice; format: in vivo
Protocol: Red dot, starting point of the swim; green dot, end point of the swim.
N=4 for wild-type and 10 mg/kg donepezil-treated 3xTg mice. N=6 for vehicle-treated 3xTg mice, 60 mg/kg n-BP-treated 3xTg mice, and 120 mg/kg n-BP-treated 3xTg mice. *p-value<0.05, **p-value<0.01 (Student's t-test). […] After 4-12 months, the B6 (C57/BL6) control mice have no AP accumulation (Green color).
The mice behavioral experiment using Morris water maze is a classical test to detect short-term memory and complex memory. Through its behavior, it can be determined whether there is a difference in memory after drug treatment. […] Two sessions were conducted on Day 1 as follows: (1) mice were placed in the swimming pool to adapt to the environment for a training duration of 120 seconds; (2) a hidden rest platform was added to the pool at a precise location in the northwest corner of the pool (blue diamond in the east; red circle in the west and yellow triangle in the south as shown in FIG. 7G) and the mice were allowed for to swim in the pool for a duration of another 120 seconds. If the rescue platform was not found by the mouse within the allocated time, the mouse was guided to the platform. The test for finding the rescue platform is carried out for the next four consecutive days, with each session lasting 90 seconds. The result is collected and analyzed.

[1] = test system: PSEN-1, PSEN-2, Aβ1-42 and NICD in C6-C99 cells; assay: Western blotting of amyloid-related proteins in C6-C99 cells; format: cell-based; details: C6-C99 cells transfected with miR-29b-2-5p mimic, compared with control cells, n=3
lnc-CYP3A43-2 = assay: Biotin-based pulldown assay with real-time PCR; details: real-time PCR of miRNA; n=3
Source text: Then, a biotin-based pulldown assay was used to validate this interaction. The result shown in FIG. 6H indicates the lnc-CYP3A43-2 can affect target miR-29b-2-5p (41.84-fold).

3′-UTR of PSEN-1 = assay: Dual luciferase assay with PSEN-1 3′-UTR reporter constructs in SH-SY5Y cells; format: cell-based, human; details: 50 nM miR-29b-2-5p
Protocol: The relative ratios of Renilla and firefly luciferase activity were measured.
The specificity and inhibitory effect of miRNA-29b-2-5p on the specific sequence of PSEN-1 can be confirmed by a dual luciferase assay. The dual luciferase assay includes two luminescence proteins, namely firefly luciferase (molecular weight 61 kDa, emission wavelength at about 560 nm) isolated from firefly (Photlnus pyralls) and Renilla luciferase (molecular weight 31 kDa, emission wavelength at about 480 nm) isolated from Renilla reniformis, which are combined with the sequence to be analyzed and cloned into a vector for amplification. After transfection into cells, the cells emit luminescence. To investigate the influence of these complementary sites, neuroblastoma cell line (SH-SY5Y) as shown in FIG. 2D is used as the cell model and 2 constructs containing continuous complementary (wild type) and noncomplementary (mutant) target site were designed as shown in FIG. 2E. The constructs were then transfected with a miR-29b-2-5p mimic into the SH-SY5Y cell line. The present disclosure uses three different PSEN-1 sequences for dual luciferase analysis, including the wild-type 3′-UTR sequence of PSEN-1, the site 2 mutant having a mutation at site 2 sequence of PSEN-1 that is predicted to be complementary to miRNA-29b-2-5p and double mutant in which both the site 1 and site 2 sequences, which are the sequences of PSEN-1 predicted to be complementary to miRNA-29b-2-5p, are mutated.

[2] = test system: PSEN-1, PSEN-2, Aβ1-42 and NICD in C6-C99 cells; assay: Western blotting of amyloid-related proteins in C6-C99 cells; format: cell-based; details: C6-C99 cells transfected with miR-29b-2-5p mimic; compared with control cells; n=3
Source text: FIG. 3B to FIG. 3E are the quantitative results of the Western blotting analysis of PSEN-1, PSEN-2, β-amyloid 1-42 (Aβ1-42) and NICD in FIG. 3A, respectively (p*<0.05, p**<0.01). The C6-C99 cells used in FIGS. 3A to 3E are glioma cells having a fragment of human amyloid precursor protein (APP). This fragment is a peptide fragment with 99 amino acids (APP-C99), which can express large amounts of PSEN-1, PSEN-2, and Aβ 1-42 after activation by cumate.
Western blotting is used to detect the expression levels of amyloid-related proteins, including PSEN-1, PSEN-2, and β-amyloid 1-42 (Aβ1-42), while simultaneously detect the expression level of Notch protein (Notch intracellular domain, NICD), which is an indicator of drug safety. If the Notch protein is not affected, then drug safety is indicated.
APP-C99 was transfected into C6 cells with the C99 peptide through cumate-inducible system activation.

CC(C)[C@H](O)C(=O)N[C@@H](C)C(=O)N[C@@H]1C(=O)N(C)CCc2ccccc21 [LY450139]
Adverse reactions (Notch signaling): causes skin tumors and differentiation of intestinal epithelial cell
Effect on Notch signaling (Notch signaling): damages Notch signaling

O=C1O[C@H]([C@@H](O)CO)C(O)=C1O [vitamin C, ascorbic acid, reference compound]
Cell survival, protection against Aβ1-42 damage (SH-SY5Y): has an effect on increasing cell survival

COc1cc2c(cc1OC)C(=O)C(CC1CCN(Cc3ccccc3)CC1)C2 (stereo not shown) [donepezil, reference compound]
Locating and arriving at the resting platform (3xTg AD mice; 120 mg/kg n-BP, donepezil as positive control): able to quickly locate and arrive at the resting platform
Time required to find the platform (3xTg AD mice; Day 5, 120 mg/kg n-BP, 10 mg donepezil/kg, vs untreated 3xTg mice): significantly lower

miR-29b-2-5p: mature miRNA-29b-2-5p nucleic acid, sequence cugguuucacaugguggcuuag (SEQ ID NO.: 1); used as mimic (CUGGUUUCACAUGGUGGCUUAG; listed as RNA, chemistry not given here; listed as Homo sapiens)
Aβ1-42 expression [1]: 48.75%±26.77%
Aβ1-42 expression ([1]; listed as miRNA-29b-2-5p): decreased
PSEN1 expression ([1]; listed as miRNA-29b-2-5p): decreased
miR-29b-2-5p in lnc-CYP3A43-2 pulldown (lnc-CYP3A43-2): 41.84 fold
Luminescence of reporter, PSEN-1 double site mutant (3′-UTR of PSEN-1): abolished the inhibitory effect
Luminescence of reporter, PSEN-1 site 2 mutant (3′-UTR of PSEN-1): abolished the inhibitory effect
Luminescence of reporter, wild type 3′-UTR of PSEN-1 (3′-UTR of PSEN-1): decreased the expression of the reporter
Luminescence of reporter, PSEN-1 double site mutant (3′-UTR of PSEN-1; listed as miRNA-29b-5p): no significant difference in the luminescence emitted
Luminescence of reporter, PSEN-1 site 2 mutant (3′-UTR of PSEN-1; listed as miRNA-29b-5p): no significant difference in the luminescence
Luminescence of reporter, wild type 3′-UTR of PSEN-1 (3′-UTR of PSEN-1; listed as miRNA-29b-5p): the luminescence emitted was inhibited
PSEN1 expression [2]: 100%±19.31%
